These are literature values, as cited in patent publication US20240156966A1 (priority 2021, published 2024).

For the series, the system named is influenza virus. To be noted: in vivo.

Regarding `CCOC(=O)C1=C[C@@H](OC(CC)CC)[C@H](NC(C)=O)[C@@H](N)C1` [Oseltamivir], the “patients with detectable viral RNA” value was 50.0%.
